In general, Emax refers to the size of the effect at its maximum, as opposed to the concentration needed.

In one assay the target is T1, human OX2R (Homo sapiens, UniProt O43614).
T1 sequence (O43614 1-444): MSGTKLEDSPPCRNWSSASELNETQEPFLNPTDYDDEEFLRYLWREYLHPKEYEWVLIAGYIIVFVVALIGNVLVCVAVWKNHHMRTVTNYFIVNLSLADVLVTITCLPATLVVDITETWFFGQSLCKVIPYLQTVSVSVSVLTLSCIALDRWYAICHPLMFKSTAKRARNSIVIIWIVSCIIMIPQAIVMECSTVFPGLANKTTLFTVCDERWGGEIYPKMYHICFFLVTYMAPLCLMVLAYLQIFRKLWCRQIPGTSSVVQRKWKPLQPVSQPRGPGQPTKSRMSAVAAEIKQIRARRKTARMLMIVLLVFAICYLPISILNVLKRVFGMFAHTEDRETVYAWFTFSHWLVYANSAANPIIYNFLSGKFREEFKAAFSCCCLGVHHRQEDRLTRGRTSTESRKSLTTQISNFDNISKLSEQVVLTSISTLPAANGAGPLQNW
Briefly: IPOne (IP-1) orexin receptor agonist assay in CHO cells expressing human OX2R. Particulars: CHO, hOX2R IP-One; percentage of mean max effect of a reference compound at 1 uM with 100% activity.
Experimental: In atypical experiment, the OX1 and OX2 receptor agonist activity is determined in accordance with the following general experimental method. Chinese hamster ovary (CHO) cells expressing human OX1R and/or the human OX2R were grown in Iscove's modified DMEM containing glutaMAX™, 1% G418, 100 U/mL penicillin, 100 μg/mL streptomycin and 10% heat-inactivated qualified fetal bovine serum (FBS). […] During this incubation, IP-one detection reagents were prepared (38:1:1 lysis buffer:D2:AB-cryptate reagents).
For each compound, data were fit to a four parameter logistic fit (ActivityBase software) and the EC50 was reported as the inflection point of the resulting curve.
`CN(C)S(=O)(=O)N[C@H]1CCN2C(=O)OCCCOc3cccc(c3)[C@H]3CC[C@H](CC3)OC[C@@H]12` [Example 16, N′-((2^1S,2^4S, 5^2R,5^3S)-6-oxo-3,7,11-trioxa-5(2,1)-pyrrolidina-1(1,3)-benzena-2(1,4)-cyclohexana-cyclounde-caphane-5^3-yl)-N,N-dimethyl-sulfamide] showed an Emax of 99.1%.

With `C[C@@H]1C[C@H](NS(C)(=O)=O)C2COC3CCC(CC3)c3nc(c(F)cc3F)OCCCOC(=O)N21` (stereo partly drawn) [Example 81, N-((2^1S,2^4S,5^2R,5^3S,5^5R)-1^3,1^5-difluoro-5^5-methyl-6-oxo-3,7,11-trioxa-1(2,6)-pyridina-5(2,1)-pyrrolidina-2(1,4)-cyclohexanacycloundecaphane-5^3-yl)methanesulfonamide], the Emax was 104%.

The molecule `C[C@@H]1C[C@H](NS(C)(=O)=O)C2COC3CCC(CC3)c3cccc(n3)N(C)CCCOC(=O)N21` (stereo partly drawn) [Example 91, N-((2^1S,2^4S,5^2R, 5^3S,5^5R)-5^5,^11-dimethyl-6-oxo-3,7-dioxa-11-aza-1(2,6)-pyridina-5(2,1)-pyrrolidina-2(1,4)-cyclohexanacycloundecaphane-5^3-yl)methanesulfonamide] had an Emax of 102%.

`COC[C@@H]1C[C@H](NS(C)(=O)=O)C2COC3CCC(CC3)c3cc(C(F)F)cc(n3)OCCCOC(=O)N21` (stereo partly drawn) [Example 85, N-((2^1S,2^4S,5^2R,5^3S,5^5S)-14-(difluoromethyl)-5^5-(methoxymethyl)-6-oxo-3,7,11-trioxa-1(2,6)-pyridina-5(2,1)-pyrrolidina-2(1,4)-cyclohexanacycloundecaphane-5^3-yl)methanesulfonamide] showed an Emax of 102%.

In turn, `CS(=O)(=O)N[C@H]1C[C@@H](CC(N)=O)N2C(=O)OCCCOc3cc(C(F)F)cc(n3)C3CCC(CC3)OCC12` (stereo partly drawn) [Example 102, 2-((2^1S,2^4S,5^2R,5^3S,5^5S)-1^4-(difluoromethyl)-5^3-(methylsulfonamido)-6-oxo-3,7,11-trioxa-1(2,6)-pyridina-5(2,1)-pyrrolidina-2(1,4)-cyclohexanacycloundecaphane-5^5-yl)acetamide] came in with a maximal response (Emax) of 99.8%.

Take `C[C@@H]1C[C@H](NS(C)(=O)=O)C2COC3CCC(CC3)c3nc(ccc3C(F)(F)F)OCCOC(=O)N21` (stereo partly drawn) [Example 68, N-((2^1S,2^4S,5^2R,5^3S,5^5R)-5^5-methyl-6-oxo-1^3-(trifluoromethyl)-3,7,10-trioxa-1(2,6)-pyridina-5(2,1)-pyrrolidina-2(1,4)-cyclohexanacyclodecaphane-5^3-yl)methanesulfonamide]: the Emax turned out to be 102%.

`CS(=O)(=O)N[C@H]1CCCN2C(=O)/C=C/CCOc3cccc(c3)C3CCC(CC3)OC[C@@H]12` [Example 28, N-((2^1S,2^4S,5^2R,5^3S,E)-6-oxo-3,11-dioxa-5(2,1)-piperidina-1(1,3)-benzena-2(1,4)-cyclohexanacycloundecaphan-7-en-5^3-yl)methanesulfonamide] showed an Emax of 102%.

As to `C[C@@H]1C[C@H](NS(=O)(=O)N(C)C)[C@@H]2COC3CCC(CC3)c3cccc(c3)OCCCCCC(=O)N12` [Example 8, N′-((2^1S,2^4S,5^2R,5^3S,5^5R)-5^5-methyl-6-oxo-3,12-dioxa-5(2,1)-pyrrolidina-1(1,3)-benzena-2(1,4)-cyclohexanacyclododecaphane-5^3-yl)-N,N-dimethyl-sulfamide], the Emax was determined as 100%.

In turn, `CCOc1cc2nc(c1)C1CCC(CC1)OCC1[C@@H](NS(C)(=O)=O)C[C@@H](C)N1C(=O)OCCO2` (stereo partly drawn) [Example 77, N-((2^1S,2^4S,5^2R,5^3S,5^5R)-1^4-ethoxy-5^5-methyl-6-oxo-3,7,10-trioxa-1(2,6)-pyridina-5(2,1)-pyrrolidina-2(1,4)-cyclohexanacyclodecaphane-5^3-yl)methanesulfonamide] returned a maximal effect (Emax) of 99.5%.

Turning to `C[C@@H]1C[C@H](NS(C)(=O)=O)C2COC3CCC(CC3)c3ccc(C(F)(F)F)c(c3)OCCCOC(=O)N21` (stereo partly drawn) [Example 52, N-((2^1S,2^4S,5^2R,5^3S,5^5R)-5^5-methyl-6-oxo-1^4-(trifluoromethyl)-3,7,11-trioxa-5(2,1)-pyrrolidina-1(1,3)-benzena-2(1,4)-cyclohexanacycloundecaphane-5^3-yl)methanesulfonamide], the maximum response (Emax) is 98.4%.

`COC[C@@H]1C[C@H](NS(C)(=O)=O)C2COC3CCC(CC3)c3cc(C(F)(F)F)cc(n3)OCCOC(=O)N21` (stereo partly drawn) [Example 84, N-((2^1S,2^4S,5^2R,5^3S,5^5S)-5^5-(methoxymethyl)-6-oxo-1^4-(trifluoromethyl)-3,7,10-trioxa-1(2,6)-pyridina-5(2,1)-pyrrolidina-2(1,4)-cyclohexanacyclodecaphane-5^3-yl)methanesulfonamide] gave an Emax of 101%.

`C[C@@H]1C[C@H](NS(=O)(=O)N(C)C)[C@@H]2COC3CCC(CC3)c3cccc(c3)CCCCOC(=O)N12` [Example 22, N′-((2^1S,2^4S,5^2R,5^3S,5^5R)-5^5-methyl-6-oxo-3,7-dioxa-5(2,1)-pyrrolidina-1(1,3)-benzena-2(1,4)-cyclohexanacycloundecaphane-5^3-yl)-N,N-dimethysulfamide] gave a maximum response (Emax) of 102%.

`COc1cc2nc(c1)C1CCC(CC1)OCC1[C@@H](NS(=O)(=O)CF)C[C@@H](C)N1C(=O)OCCO2` (stereo partly drawn) [Example 104, 1-fluoro-N-((2^1R,2^4R,5^2R,5^3S,5^5R)-1^4-methoxy-5^5-methyl-6-oxo-3,7,10-trioxa-1(2, 6)-pyridina-5(2,1)-pyrro-lidina-2(1,4)-cyclohexana-cyclodecaphane-5^3-yl)methanesulfonamide] yielded an Emax of 102%.

In turn, `COc1cc2nc(c1)C1CCC(CC1)OCC1[C@@H](NS(C)(=O)=O)C[C@@H](C)N1C(=O)OCCCO2` (stereo partly drawn) [Example 71, N-((2^1S,2^4S,5^2R,5^3S,5^5R)-1^4-methoxy-5^5-methyl-6-oxo-3,7,11-trioxa-1(2,6)-pyridina-5(2,1)-pyrrolidina-2(1,4)-cyclohexanacycloundecaphane-5^3-yl)methanesulfonamide] yielded an Emax of 102%.

Still in this assay, the particulars now being: hOX2R IP-One; percentage of mean max effect of a reference compound at 1 uM with 100% activity.
As to `CS(=O)(=O)NC1CCCN2C(=O)CCCOc3cccc(c3)C3CCC(C3)OCC12` (single isomer, unassigned) [Example 34, N-((2^1S,2^3R,5^2R,5^3S)-6-oxo-3,10-dioxa-5(2,1)-piperidina-1(1,3)-benzena-2(1,3)-cyclopentanacyclodecaphane-5^3-yl)methanesulfonamide], the “Emax (%)” value was 5.0%.

For `CS(=O)(=O)NC1CCCN2C(=O)CCCOc3cccc(c3)C3CCC(C3)OCC12` (single isomer, unassigned) [Example 35, N-((2^1S,2^3R,5^2R,5^3S)-6-oxo-3,10-dioxa-5(2,1)-piperidina-1(1,3)-benzena-2(1,3)-cyclopentanacyclodecaphane-5^3-yl)methanesulfonamide], the “Emax (%)” value worked out at 100.1%.

In the case of `CN(C)S(=O)(=O)NC1CCN2C(=O)OCCCCc3cccc(c3)C3CCC(CC3)OCC12` (stereo not drawn) [Example 21, N′-((2^1S,2^4S,5^2R,5^3S)-6-oxo-3,7-dioxa-5(2,1)-pyrrolidina-1(1,3)-benzena-2(1,4)-cyclohexanacycloundecaphane-5^3-yl)-N,N-dimethyl-sulfamide], the “Emax (%)” value was 100.5%.

Consider `CN(C)S(=O)(=O)NC1CCCN2C(=O)OCCc3ccccc3C3CCC(CC3)OCC12` (single isomer, unassigned) [Example 38, N′-((2^1S,2^4S,5^2R,5^3S)-6-oxo-3,7-dioxa-5(2,1)-piperidina-1(1,2)-benzena-2(1,4)-cyclohexanacyclononaphane-5^3-yl)-N,N-dimethyl-sulfamide], for which the “Emax (%)” value is recorded as 100.8%.

Source of the values: US20240002397A1, “3-AMINO PYRROLIDINE AND PIPERIDINE MACROCYCLIC OREXIN RECEPTOR AGONISTS” (Merck Sharp & Dohme LLC, priority 2020, published 2024).
